Patent US7507792B2, “MDA-7 proteins and methods of use thereof” (The Trustees of Columbia University In The City of New York, priority 1993, dated 2009)
“Also recorded” adds a separate entry of the source.

Key:
[1] = system: MDA-6 (WAF1/CIP1/SDI1) protein; assay: Immunoprecipitation of MDA-6 (WAF1/CIP1/SDI1) protein in HL-60 cells; type: cell-based, human; settings: TPA, DMSO (1%) or RA (1 μM), 12, 24, 48 and 72 h tested
Experimental: Immunoprecipitation analyses were performed as described previously (Duigou et al., 1991; Su et al. 1993). Logarithmically growing HL-60 cells were either untreated or treated for 12, 24, 48 or 72 h with TPA ([…]), RA (1 μM) or DMSO (1%) in 10-cm plates. Cultures were starved of methionine for 1 h at 37° C. in methionine-free medium, cells were concentrated by pelleting and labeled for 4 h at 37° C. in 1 ml of the same medium with 100 μCi of [^35S] (NEN; Express ^35S). After labeling, the cells were washed twice with ice-cold phosphate-buffered saline and lysed for 1 h on ice by the addition of RIPC (20 mM Tris-base, pH 7.5, 500 mM NaCl, 0.05% Nonidet P-40, 100 μg/ml phenylmethylsulfonyl fluoride and 0.02% sodium azide). The lysate was clarified by centrifugation in an Eppendorf microfuge at 10,000×g for 10 min at 4° C. Samples containing 4×10^6 counts were incubated with 2 μg of WAF1/CIP1 (C-19) (Santa Cruz Biotechnology) (or MDA-6 peptide-derived) rabbit polyclonal IgG or actin monoclonal antibody (Oncogene Sciences) with rocking at 4° C. for 24 h. The next day, 30 μl (packed volume) of protein G-agarose (Oncogene Sciences) was added to each tube, and incubation with rocking at 4° C. continued for another hour. The protein G pellets were then washed five times with 1 ml of ice-cold RIPC:phosphate-buffered saline (1:1, v/v). Thirty μl of sodium dodecyl sulfate-polyacrylamide gel electrophoresis buffer were added to the pellets, and the sample was heated at 87° C. for 3 min. The samples were loaded onto an 10% polyacrylamide gel and run overnight at 40 V. The gel contained Rainbow protein markers (Amersham) for sizing. Gels were fixed with 10% acetic acid plus 10% methanol for 30 min, incubated in DMSO for 30 min, incubated with 10% 2,5-diphenyloxazole in DMSO for 30 min, washed three times with cold water (10 min each), dried and exposed to film.

H0-1 cells = assay: Northern blotting of H0-1 RNA probed with mda cDNA clones; type: cell-based, human; settings: 24 hours
Experimental: Ten micrograms of total cellular RNA were separated on a 1% agarose gel, transferred to nylon membranes and then hybridized individually with radioactive probes prepared using appropriate inserts from the cDNA clones.
The mass excision of the library was performed using ExAssist helper phage as described above. The SOLR strain of Escherichia coli and cDNA phagemids were mixed at 37° C. for 15 min and plated onto LB plates containing ampicillin and IPTG/X-gal. White colonies were chosen at random, isolated and grown in LB medium. Plasmid minireps and restriction enzyme digestions were performed to confirm the presence of inserts. The inserts were isolated and used as robes for Northern blotting analysis (5,25). […] Radiolabeled probes were generated by random oligonucleotide priming (25). Prehybridization, hybridization, posthybridization washes, and autoradiography were performed as described (5,18,25).

SMILES: CCCCCCCCCCCCCC(=O)O[C@@H]1[C@@H](C)[C@@]2(O)[C@@H](C=C(CO)C[C@]3(O)C(=O)C(C)=C[C@@H]23)[C@@H]2C(C)(C)[C@]12OC(C)=O [TPA, 12-O-tetradecanoyl-phorbol-13-acetate]
- time of treatment at which MDA-6 protein is detected [1]: 12 h

SMILES: CC1=C(/C=C/C(C)=C/C=C/C(C)=C/C(=O)O)C(C)(C)CCC1 [RA, trans-retinoic acid]
- time of treatment at which MDA-6 protein is detected [1]: 12 h

SMILES: C=C(C)[C@@]12O[C@@]3(c4ccccc4)O[C@@H]1[C@@H]1[C@@H]4O[C@]4(CO)[C@@H](O)[C@]4(O)C(=O)C(C)=C[C@H]4[C@@]1(O3)[C@H](C)[C@H]2OC(=O)/C=C/C=C/c1ccccc1 [MEZ, mezerein]
- mda-3 expression (H0-1 cells): induced; also recorded: Increased expression
